Results taken from US20100317528A1, “HERBICIDE CONTAINING BENZOYLPYRAZOLE COMPOUND” (ISHIHARA SANGYO KAISHA, LTD., priority 2006, published 2010).

Experiments:
Type in all cases: in vivo
[1] = test system: crabgrass (Digitaria sanguinalis L.); experiment: Test Example 1: foliar treatment, upland pot test, crabgrass
[2] = test system: prickly sida (Sida spinosa L.); experiment: Test Example 1: foliar treatment, upland pot test, prickly sida
[3] = test system: green foxtail (Setaria viridis L.); experiment: Test Example 2: soil application on the day after sowing, green foxtail
Outline: (§1)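 Day-after-sowing soil treatment in 1/170,000 ha pots of upland soil, sprayed at 500 L/ha water volume; % growth inhibition rated by eye 19–28 days later.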

[4] = test system: prickly sida (Sida spinosa L.); experiment: Test Example 2: soil application on the day after sowing, prickly sida
Outline: as §1

corn (Zea mays L.) [5] = experiment: Test Example 3: foliar treatment at later leaf stage, corn; conditions: 120 g/ha, 4.0 to 4.3 leaf stage, MSO Concentrate 0.5 vol %, 300 L/ha
Source text: (§2) Upland field soil was put into a 1/1,000,000 hectare pot, and seeds of various plants were sown. When the respective plants reached predetermined leaf stage ((1) green foxtail (Setaria viridis L.): 4.0 to 4.5 leaf stage, (2) guineagrass (Panicum maximum Jacq.): 3.5 to 4.3 leaf stage, and (3) corn (Zea mays L.): 4.0 to 4.3 leaf stage, wettable powders or emulsifiable concentrates of compounds of the above formula (I), prepared in accordance with a conventional preparation method, were weighed so that the active ingredients became the prescribed amounts, and diluted with water in an amount corresponding to 300 or 500 liter per 1 hectare (containing of an agricultural spreader (MSO concentrate, manufactured by Cognis Corporation or “KUSARINOH”, manufactured by NIHON NOHYAKU CO., LTD.). The spray solutions thus prepared were applied for foliar treatment by a small sprayer.
(§3) On the 18th to 24th day after application, the state of growth of the respective plants was visually observed, and the herbicidal effect was evaluated by a growth inhibition rate (%) of 0 (equivalent to the non-treated area) to 100% (complete kill).

wheat (Triticum spp.) [6] = experiment: Test Example 2: soil application on the day after sowing, wheat
Outline: as §1

[7] = test system: green foxtail (Setaria viridis L.); experiment: Test Example 1: foliar treatment, upland pot test, green foxtail
corn (Zea mays L.) [8] = experiment: Test Example 2: soil application on the day after sowing, corn
Outline: as §1

[9] = test system: redroot pigweed (Amaranthus retroflexus L.); experiment: Test Example 1: foliar treatment, upland pot test, redroot pigweed
Outline: (§4)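 Upland soil pots, sown; foliar spray at pigweed cotyledon–2.0 leaf, velvetleaf 0.1–1.5 leaf, rice 1.0–3.0 leaf, wheat 1.7–3.4 leaf. WP/EC formulations, prescribed a.i. rate, 500 L/ha spray volume + 0.1 vol % spreader. Visual % inhibition, d17–25.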

[10] = test system: barnyardgrass (Echinochloa crus-galli L.); experiment: Test Example 1: foliar treatment, upland pot test, barnyardgrass
[11] = test system: soybean (Glycine max Merr.); experiment: Test Example 1: foliar treatment, upland pot test, soybean
[12] = test system: barnyardgrass (Echinochloa crus-galli L.); experiment: Test Example 2: soil application on the day after sowing, barnyardgrass
Outline: as §1

corn (Zea mays L.) [13] = experiment: Test Example 1: foliar treatment, upland pot test, corn
wheat (Triticum spp.) [14] = experiment: Test Example 1: foliar treatment, upland pot test, wheat
Outline: as §4

[15] = test system: guineagrass (Panicum maximum Jacq.); experiment: Test Example 3: foliar treatment at later leaf stage, guineagrass; conditions: 31 g/ha, 3.5 to 4.3 leaf stage, KUSARINOH 0.1 vol %, 500 L/ha
Source text: as §2, §3

[16] = test system: velvetleaf (Abutilon theophrasti MEDIC.); experiment: Test Example 2: soil application on the day after sowing, velvetleaf
Outline: as §1

[17] = test system: redroot pigweed (Amaranthus retroflexus L.); experiment: Test Example 2: soil application on the day after sowing, redroot pigweed
Outline: as §1

[18] = test system: velvetleaf (Abutilon theophrasti MEDIC.); experiment: Test Example 1: foliar treatment, upland pot test, velvetleaf
Outline: as §4

rice (Oryza sativa L.) [19] = experiment: Test Example 2: soil application on the day after sowing, rice
Outline: as §1

rice (Oryza sativa L.) [20] = experiment: Test Example 1: foliar treatment, upland pot test, rice
Outline: as §4

[21] = test system: green foxtail (Setaria viridis L.); experiment: Test Example 3: foliar treatment at later leaf stage, green foxtail; conditions: 4.0 to 4.5 leaf stage, MSO Concentrate 0.5 vol %, 300 L/ha
Source text: as §2, §3

[22] = test system: crabgrass (Digitaria sanquinalis L.); experiment: Test Example 2: soil application on the day after sowing, crabgrass
Outline: as §1

[23] = test system: soybean (Glycine max Merr.); experiment: Test Example 2: soil application on the day after sowing, soybean
Outline: as §1

[24] = 31 g/ha active ingredient, observed 17th to 25th day after application
[25] = 250 g/ha active ingredient, observed 19th to 28th day after application

In the case of `CCn1ncc(C(=O)c2ccc(S(C)(=O)=O)c(OCCOC)c2C)c1O` [compound 131], the “Growth inhibition rate (%) Crabgrass” value [1, 24] is reported as 100%, the “Growth inhibition rate (%) Prickly sida” value [2, 24] is reported as 70% and the “Growth inhibition rate (%) Green foxtail” value [3, 25] is reported as 100%. The “Growth inhibition rate (%) Prickly sida” value [4, 25] was 30%, the “Growth inhibition rate (%) (21st day after application) Corn” value (corn (Zea mays L.) [5]) was 0% and the “Growth inhibition rate (%) Wheat” value (wheat (Triticum spp.) [6]; [25]) was 40%. The “Growth inhibition rate (%) Green foxtail” value [7, 24] was 100%, the “Growth inhibition rate (%) Corn” value (corn (Zea mays L.) [8]; [25]) was 30% and the “Growth inhibition rate (%) Redroot pigweed” value [9, 24] was 100%. The “Growth inhibition rate (%) Barnyardgrass” value [10, 24] was 100%, the “Growth inhibition rate (%) Soybean” value [11, 24] was 100% and the “Growth inhibition rate (%) Barnyardgrass” value [12, 25] was 100%. For the same molecule, the “Growth inhibition rate (%) Corn” value (corn (Zea mays L.) [13]; [24]) was 10%, the “Growth inhibition rate (%) Wheat” value (wheat (Triticum spp.) [14]; [24]) was 30% and the “Growth inhibition rate (%) (18th day after application) Guineagrass” value [15] was 93%. For the same molecule, the “Growth inhibition rate (%) Velvetleaf” value [16, 25] was 90%, the “Growth inhibition rate (%) Redroot pigweed” value [17, 25] was 100% and the “Growth inhibition rate (%) Velvetleaf” value [18, 24] was 100%. For the same molecule, the “Growth inhibition rate (%) Rice” value (rice (Oryza sativa L.) [19]; [25]) was 100%, the “Growth inhibition rate (%) Rice” value (rice (Oryza sativa L.) [20]; [24]) was 70% and the “Growth inhibition rate (%) (24th day after application) Green foxtail” value ([21]; 7 g/ha) was 98%. The “Growth inhibition rate (%) (24th day after application) Green foxtail” value ([21]; 15 g/ha) was 100%, the “Growth inhibition rate (%) Crabgrass” value [22, 25] was 100% and the “Growth inhibition rate (%) Soybean” value [23, 25] was 40%.

`Cn1ncc(C(=O)c2ccc(S(C)(=O)=O)c(S(C)(=O)=O)c2Cl)c1O` [compound 247] showed an inhibition at 63 g/ha ([1]; Digitaria sanguinalis, 63 g/ha active ingredient, observed 21st day after application, read-out: Growth inhibition rate (%) Crabgrass) of 30%, an inhibition at 63 g/ha ([2]; Sida spinosa, 63 g/ha active ingredient, observed 21st day after application, read-out: Growth inhibition rate (%) Prickly sida) of 90% and an inhibition at 500 g/ha ([3]; Setaria viridis, 500 g/ha active ingredient, observed 20th day after application, read-out: Growth inhibition rate (%) Green foxtail) of 100%. For the same molecule, the inhibition at 500 g/ha ([4]; Sida spinosa, 500 g/ha active ingredient, observed 20th day after application, read-out: Growth inhibition rate (%) Prickly sida) was 75%, the inhibition at 500 g/ha (wheat (Triticum spp.) [6]; Triticum, 500 g/ha active ingredient, observed 20th day after application, read-out: Growth inhibition rate (%) Wheat) was 10% and the inhibition at 63 g/ha ([7]; Setaria viridis, 63 g/ha active ingredient, observed 21st day after application, read-out: Growth inhibition rate (%) Green foxtail) was 50%. It also gave an inhibition at 500 g/ha (corn (Zea mays L.) [8]; Zea mays, 500 g/ha active ingredient, observed 20th day after application, read-out: Growth inhibition rate (%) Corn) of 0%, an inhibition at 63 g/ha ([9]; Amaranthus retroflexus, 63 g/ha active ingredient, observed 21st day after application, read-out: Growth inhibition rate (%) Redroot pigweed) of 100% and an inhibition at 63 g/ha ([10]; Echinochloa crus-galli, 63 g/ha active ingredient, observed 21st day after application, read-out: Growth inhibition rate (%) Barnyardgrass) of 90%. The inhibition at 63 g/ha ([11]; Glycine max, 63 g/ha active ingredient, observed 21st day after application, read-out: Growth inhibition rate (%) Soybean) was 100%, the inhibition at 500 g/ha ([12]; Echinochloa crus-galli, 500 g/ha active ingredient, observed 20th day after application, read-out: Growth inhibition rate (%) Barnyardgrass) was 100% and the inhibition at 63 g/ha (corn (Zea mays L.) [13]; Zea mays, 63 g/ha active ingredient, observed 21st day after application, read-out: Growth inhibition rate (%) Corn) was 0%. For the same molecule, the inhibition at 63 g/ha (wheat (Triticum spp.) [14]; Triticum, 63 g/ha active ingredient, observed 21st day after application, read-out: Growth inhibition rate (%) Wheat) was 0%, the inhibition at 500 g/ha ([16]; Abutilon theophrasti, 500 g/ha active ingredient, observed 20th day after application, read-out: Growth inhibition rate (%) Velvetleaf) was 100% and the inhibition at 500 g/ha ([17]; Amaranthus retroflexus, 500 g/ha active ingredient, observed 20th day after application, read-out: Growth inhibition rate (%) Redroot pigweed) was 100%. It also gave an inhibition at 63 g/ha ([18]; Abutilon theophrasti, 63 g/ha active ingredient, observed 21st day after application, read-out: Growth inhibition rate (%) Velvetleaf) of 80%, an inhibition at 500 g/ha (rice (Oryza sativa L.) [19]; Oryza sativa, 500 g/ha active ingredient, observed 20th day after application, read-out: Growth inhibition rate (%) Rice) of 98% and an inhibition at 63 g/ha (rice (Oryza sativa L.) [20]; Oryza sativa, 63 g/ha active ingredient, observed 21st day after application, read-out: Growth inhibition rate (%) Rice) of 20%. It also gave an inhibition at 500 g/ha ([22]; Digitaria, 500 g/ha active ingredient, observed 20th day after application, read-out: Growth inhibition rate (%) Crabgrass) of 100% and an inhibition at 500 g/ha ([23]; Glycine max, 500 g/ha active ingredient, observed 20th day after application, read-out: Growth inhibition rate (%) Soybean) of 50%.
